According to patent US20240173285A1, “COMPOSITIONS COMPRISING EPA AND METHODS OF USING THE SAME FOR TREATING AND/OR PREVENTING ENDOTHELIAL DYSFUNCTION IN A SUBJECT” (Amarin Pharmaceuticals Ireland Limited, priority 2021, published 2024):

Experiments:
HUVECs [1] = assay: NO release from HUVECs measured with tandem porphyrinic nanosensors; type: cell-based, human; conditions: for NO Release: then IL-6 12 ng/ml 24 h, calcium ionophore, mean ± SEM, N = 4-5
Method: (§1) Human pulmonary ECs (PECs) and umbilical vein ECs (HUVECs) were treated with vehicle or EPA (40/10 μM in PECs/HUVECs) and IL-6 (12 ng/ml) for 24 hours. Proteomic analysis was performed using liquid chromatography/mass spectroscopy. […] NO release was measured in HUVECs using tandem porphyrinic nanosensors following stimulation with calcium.
NO release from HUVECs was measured as previously described. Briefly, in parallel with the cellular preparations for proteomic analysis, HUVECs were stimulated with calcium ionophore and NO was measured using tandem porphyrinic nanosensors.

[2] = tested on: umbilical vein ECs (HUVECs); assay: Proteomic analysis (LC/MS) of HUVECs treated with EPA and IL-6 for 24 hours; type: cell-based, human; conditions: EPA 10 μM + IL-6 12 ng/ml
Method: as §1, with “Human pulmonary ECs (PECs) and umbilical vein ECs (HUVECs) were treated with vehicle or EPA (40/10 μM in PECs/HUVECs) and IL-6 (12 ng/ml) for 24 hours. Proteomic analysis was performed using liquid chromatography/mass spectroscopy. […] Human” for “Human”

[3] = tested on: Human pulmonary ECs (PECs); assay: Proteomic analysis (LC/MS) of pulmonary ECs treated with EPA and IL-6 for 24 hours; type: cell-based; conditions: EPA 40 μM + IL-6 12 ng/ml
Method: as §1, with “Human pulmonary ECs (PECs) and umbilical vein ECs (HUVECs) were treated with vehicle or EPA (40/10 μM in PECs/HUVECs) and IL-6 (12 ng/ml) for 24 hours. Proteomic analysis was performed using liquid chromatography/mass spectroscopy. […] Human” for “Human”

Human PECs = assay: Fatty acid content of PECs by GC/MS; type: cell-based; conditions: PECs pretreated with EPA 40 μM, IL-6
Method: Human PECs were pretreated with vehicle or EPA (40 μM) for 2 hours, then challenged with IL-6 at 12 ng/ml for 24 hours. Proteomic analysis was performed using LC/MS to capture relative expression levels. Only significant changes in protein expression between treatment groups >2-fold were analyzed. Levels of intercellular adhesion molecule-1 (ICAM-1) were measured by immunochemistry. EPA, docosahexaenoic acid (DHA), docosapentaenoic acid (DPA), palmitic acid (PA), linoleic acid (LA) and arachidonic acid (AA) content was measured by GC/MS.

Human pulmonary ECs = assay: Proteomic analysis (LC/MS) of pulmonary ECs treated with EPA after IL-6 exposure; type: cell-based; conditions: IL-6 12 ng/ml 2 hours, then EPA 24 h
Method: Human pulmonary ECs were treated with vehicle or EPA for 24 h after exposure to IL-6 at 12 ng/ml for 2 hours. Proteomic analysis was performed using liquid chromatography/mass spectroscopy to capture relative expression levels. Only significant changes in protein expression between treatment groups >1-fold with a p-value less than 0.05 were analyzed.

[4] = tested on: heme oxygenase-1 (HMOX-1); assay: HMOX-1 expression relative to IL-6 in HUVECs (LC/MS proteomics); type: cell-based, human; conditions: 10 μM 2 hours, then IL-6 12 ng/ml 24 h
Method: (§2) HUVECs were treated with vehicle, EPA, or DHA (10 μM) for 2 hours, and then challenged with IL-6 (12 ng/ml) for 24 h hours. After incubation, cells were pelleted and frozen at −80° C. until proteomic analysis was performed. Cell pellets were lysed using methanol/chloroform extraction. Proteins were denatured, reduced, alkylated, and trypsin digested. Samples were then prepared for Tandem Mass Tag (TMT) 10plex labeling. A bicinchoninic acid (BCA) assay was performed on each sample to quantify the total protein in each sample, which is important to confirm equal amounts of each sample are added to the multiplex sample. Each peptide in a sample was given a unique, low molecular weight (typically 126-130 Da), and then the samples were combined. Relative protein expression levels among the various treatments were measured using LC/MS proteomic techniques. Following protein digest, peptides are separated over a reverse phase column and then identified based on their mass.
Each multiplexed sample was then fractionated to increase the overall protein coverage using high pH reversed phase fractionation and analyzed by LC/MS using a Dionex UltiMate 3000 RSLC in tandem with a Q-Exactive/Lumos Orbitrap Mass Spectrometer. The chromatography was performed using a 2-hour gradient on a Thermo Pepmap C18 column (100 Å pore size, 3.0 μm particle size, […]×150 mm) set at 50° C. […]

[5] = tested on: Platelet endothelial cell adhesion molecule 1 (PECAM-1); assay: PECAM-1 expression relative to IL-6 in HUVECs (LC/MS proteomics); type: cell-based, human; conditions: 10 μM 2 hours, then IL-6 12 ng/ml 24 h
Method: as §2, with “AA” for “DHA”, “mass. Each multiplexed sample was then fractionated to increase the overall protein coverage using high pH reversed phase fractionation and analyzed by LC/MS using a Dionex UltiMate 3000 RSLC in tandem with a Q-Exactive/Lumos Orbitrap Mass Spectrometer. The chromatography was performed using a 2-hour gradient on a Thermo Pepmap C18 column (100 Å pore size, 3.0 μm particle size, […]×150 mm) set at 50° C. […]” for “mass.”

HUVECs [6] = assay: Peroxynitrite (ONOO-) release from HUVECs measured with porphyrinic nanosensor; type: cell-based, human; conditions: 10 μM 2 hours, then IL-6 12 ng/ml 24 h; for ONOO- Release: calcium ionophore, mean ± SEM, N = 4-5
Text: FIG. 5 is a schematic illustration of the ONOO— assay. The nanosensor is used to quantitate endothelial NO and ONOO— release in real time and is made by depositing a sensing material on the tip of carbon fiber with a diameter of only 0.5 μm. The fiber is sealed with nonconductive epoxy and electrically connected to wires (gold, copper) with conductive silver epoxy. Conductive films of polymeric Ni(II) tetrakis (3-methoxy-4-hydroxyphenyl) porphyrin and Mn(III) paracyclophanylporphyrin were used for the NO and ONOO— sensors, respectively.
Release of ONOO— from HUVECs was measured as previously described. Briefly, in parallel with the cellular preparations for proteomic analysis, HUVECs were stimulated with calcium ionophore and ONOO— was measured using a porphyrinic nanosensor (FIG. 5).

[7] = Clinical study of human participants exposed to high-dose ethyl EPA; type: in vivo; conditions: high-dose exposure
Text: Based on a clinical study of human participants, the inventors have discovered that exposure to a high-dose ethyl EPA (i.e., […]) is associated with fewer anemia AEs and higher hemoglobin and hematocrit. High-dose ethyl EPA exposure is also associated with higher levels of the heme derivative bilirubin, which is a potent antioxidant. […] Both biliverdin and bilirubin are potent antioxidants, but bilirubin is likely the stronger of the two. Bilirubin can be converted back into biliverdin rather than being eliminated, thus perpetuating both compounds' antioxidant effects.

## CC/C=C\C/C=C\C/C=C\C/C=C\C/C=C\C/C=C\CCC(=O)O [DHA, docosahexaenoic acid, reference compound]
HUVECs [1]; 10 μM 2 hours
  NO Release: 404 ± 15 nM

## CC/C=C\C/C=C\C/C=C\C/C=C\C/C=C\CCCC(=O)O [EPA, eicosapentaenoic acid]
[2]
  Platelet endothelial cell adhesion molecule (PECAM) downregulation: 1.2 fold
  heme-oxygenase-1 increase: 1.6 fold
  integrin alpha-V decrease: 1.5 fold
  superoxide dismutase increase: 1.6 fold
[3]
  Platelet endothelial cell adhesion molecule (PECAM) downregulation: 1.2 fold
  amyloid-beta precursor protein decrease: 1.1 fold
  heme-oxygenase-1 increase: 1.9 fold
  integrin alpha-V decrease: 1.1 fold
  thrombin receptor decrease: 1.3 fold
HUVECs [1]; 10 μM 2 hours, then IL-6 12 ng/ml 24 h (Example 5)
  increase of NO release compared to IL-6 alone: 13%
HUVECs [1]; 10 μM 2 hours
  NO Release: 421 ± 12 nM
HUVECs [1]; EPA 10 μM and IL-6 12 ng/ml 24 hours, calcium stimulation (Example 2)
  increase of NO release relative to IL-6 alone: 13%
Human PECs
  reduction of PA (palmitic acid) levels: 34%
Human pulmonary ECs
  ACE level reduction: 1.1 fold
  ECE-1 level reduction: 1.3 fold
  Hsp90 increase compared to IL-6: 1.1 fold
  caveolin-1 downregulation compared to IL-6: 1.3 fold
[4]
  HMOX-1 Expression Relative to IL-6, Fold Change Increase: 1.58 fold
  upregulation of inducible HMOX-1 compared to IL-6 alone: 160%
[5]
  PECAM-1 Expression Relative to IL-6, Fold Change Increase: 1.22 fold
  decrease in PECAM-1: 120%
HUVECs [6]
  decrease of ONOO— release relative to IL-6 alone: 17%
  ONOO- Release: 181 ± 10 nM

## CC/C=C\C/C=C\C/C=C\C/C=C\C/C=C\CCCC(=O)OCC [ethyl EPA, eicosapentaenoic acid ethyl ester]
[7]
  anemia AEs: fewer

## CCCCC/C=C\C/C=C\C/C=C\C/C=C\CCCC(=O)O [AA, arachidonic acid, reference compound]
HUVECs [6]
  ONOO- Release: 194 ± 9 nM

## IL-6: cytokine interleukin-6 used to challenge endothelial cells (12 ng/ml) [reference compound]
HUVECs [1]; 10 μM 2 hours
  NO Release: 371 ± 14 nM
HUVECs [6]
  ONOO- Release: 217 ± 10 nM
